# Source: publication PMC4917279 (Journal of Medicinal Chemistry, 2016)
# Legend:
# [1] = Metabolic stability in rat hepatocytes; assay type: in vitro ADME; conditions: read-out: CL (CLblood) (converted)
# Procedure: Liver cells were distributed in Williams’ medium E containing 5% fetal calf serum (FCS) to glass vials at a density of 1.0 × 10^6 vital cells/mL. The test compound was added to a final concentration of 1 μM. During incubation, the hepatocyte suspensions were continuously shaken and aliquots were taken at 2, 8, 16, 30, 45, and 90 min, to which an equal volume of cold MeOH was immediately added. Samples were frozen at −20 °C overnight, then centrifuged (15 min, 3000 rpm), and the supernatant was analyzed with an Agilent 1200 HPLC system with LC-MS/MS detection. The half-life of a test compound was determined from the concentration–time plot. The intrinsic clearances were calculated from the half-life, together with additional parameters (liver blood flow, quantity of liver cells in vivo and in vitro).
# [2] = Caco2 drug permeability assay; assay type: in vitro ADME; conditions: human, Caco-2, pH 7.2
# Procedure: Caco-2 cells (purchased from DSMZ Braunschweig, Germany) were seeded at a density of 4.5 × 10^4 cell per well on 24-well insert plates, 0.4 μm pore size, and grown for 15 days in DMEM medium supplemented with 10% fetal bovine serum, 1% GlutaMAX (100×, GIBCO), 100 μg/mL penicillin, 100 μg/mL streptomycin (GIBCO), and 1% nonessential amino acids (100×). Cells were maintained at 37 °C in a humified 5% CO2 atmosphere. Medium was changed every second to third day. Before running the permeation assay, the culture medium was replaced by an FCS-free Hepes-carbonate transport buffer (pH 7.2). For assessment of monolayer integrity, the transepithelial electrical resistance (TEER) was measured. Test compounds were dissolved in DMSO and added either to the apical or basolateral compartment in a final concentration of 2 μM. Before and after incubation at 37 °C, samples were taken from both compartments. Analysis of compound content was performed following precipitation with methanol and LC/MS/MS analysis. Permeability (Papp) was calculated in the apical to basolateral (A → B) and basolateral to apical (B → A) directions. The apparent permeability was calculated using following equation: [drawing 3] where Vr = volume of medium in the receiver chamber, P0 = measured peak area of the test drug in the donor chamber at t = 0, S = surface area of the monolayer, P2 = measured peak area of the test drug in the acceptor chamber after incubation for 2 h, and t = incubation time. The efflux ratio basolateral (B) to apical (A) was calculated by dividing Papp (B–A) by Papp (A–B). In addition, the compound recovery was calculated. Reference compounds were analyzed in parallel as assay controls. All samples were analyzed by LC/MS/MS.
# [3] = Integrity of the pyrazoline stereocenter (racemization); assay type: physicochemical; conditions: aqueous solution at pH 7, mouse and human plasma at 37 °C
# Procedure: Compounds 4, 28, and 30–34 were separated into their enantiomers by preparative chiral HPLC or chiral supercritical fluid chromatography. For compounds 6 and 4, the integrity of the pyrazoline stereocenter was tested. The compounds were stable to racemization in aqueous solution at pH 7, as well as in mouse and human plasma at 37 °C, for at least 48 h. However, clean racemization was obtained under basic conditions and microwave irradiation (DBU, THF, 90 °C).
# SMYD2 [4] = biological target: T1, SMYD2 (Homo sapiens, UniProt Q9NRG4); test: SMYD2 scintillation proximity assay (SPA); assay type: biochemical; design: The SMYD2 full-length enzyme with an N-terminal 6xHis tag was expressed in Escherichia coli; made in house; host or cells: Escherichia coli; conditions: for BEI (SMYD2): Binding efficiency index: pIC50/MW × 1000
# T1 sequence (Q9NRG4 whole entry): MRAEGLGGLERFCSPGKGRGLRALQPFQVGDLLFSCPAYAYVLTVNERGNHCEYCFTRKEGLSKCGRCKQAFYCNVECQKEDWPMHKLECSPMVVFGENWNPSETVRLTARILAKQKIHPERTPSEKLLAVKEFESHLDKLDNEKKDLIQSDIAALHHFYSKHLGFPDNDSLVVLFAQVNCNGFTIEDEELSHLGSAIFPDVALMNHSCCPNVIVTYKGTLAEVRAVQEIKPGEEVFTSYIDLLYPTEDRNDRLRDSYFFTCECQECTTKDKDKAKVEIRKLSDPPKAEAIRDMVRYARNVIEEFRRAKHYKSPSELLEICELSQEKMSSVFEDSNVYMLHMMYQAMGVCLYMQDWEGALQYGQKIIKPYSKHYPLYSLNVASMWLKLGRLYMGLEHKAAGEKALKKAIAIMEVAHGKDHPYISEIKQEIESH
# SMYD2 [5] = biological target: T1, SMYD2; test: Isothermal titration calorimetry (ITC); assay type: binding; design: The SMYD2 full-length enzyme with an N-terminal 6xHis tag was expressed in Escherichia coli; made in house; host or cells: Escherichia coli
# Procedure: Isothermal titration calorimetry (ITC) measurements were carried out using a MicroCal iTC200 system. In the experiments, compound (400 μM) was titrated into SMYD2 protein (67 μM) dissolved in 25 mM Tris pH 8.5, 50 mM NaCl, 0.0022% Pluronic F-127, and 2% DMSO at 25 °C. After an initial injection of 0.2 μL, which was not considered for data fitting, 10 injections of 4 μL each in 150 s intervals were performed. The stirring speed of the protein in the cell was 500 rpm. The protein concentration was determined from UV absorbance measurements at 280 nm. Data were evaluated using ORIGIN software, as supplied with the instrument.
# [6] = tested on: KYSE-150, U2OS, and A2780 cell lines; test: Caspase 3/7 activation assay; assay type: cell-based; conditions: 2 days pretreatment, then doxorubicin 24 h; KYSE-150, U2OS, A2780
# Procedure: Effects on apoptosis induction were measured with the Caspase-Glo 3/7 Assay System (Promega).
smiles,measurement,setting,value
CCN(C(=O)CO)[C@H]1CN(/C(=N\C#N)Nc2cccc(OC(F)F)c2)N=C1c1ccc(Cl)c(C)c1 [(S)-28],"CLhep predicted at […], 1 µM",[1],46.7 mL/min/kg
same,"Papp A→B at 2 h, 2 µM",[2],3.3 ×10⁻⁶ cm/s
CCN(C(=O)CO)[C@H]1CN(/C(=N\C#N)Nc2cccc(OC(F)(F)F)c2)N=C1c1ccc(Cl)c(Cl)c1 [(S)-30],"CLhep predicted at […], 1 µM",[1],26.7 mL/min/kg
same,"Papp A→B at 2 h, 2 µM",[2],3.2 ×10⁻⁶ cm/s
CCN(C(=O)CO)[C@H]1CN(/C(=N\C#N)Nc2cccc(OC)c2)N=C1c1ccc(Cl)c(Cl)c1 [(S)-31],"CLhep predicted at […], 1 µM",[1],53.3 mL/min/kg
same,"Papp A→B at 2 h, 2 µM",[2],6.2 ×10⁻⁶ cm/s
CCN(C(=O)CO)[C@H]1CN(/C(=N\C#N)Nc2cccc(OC(F)F)n2)N=C1c1ccc(Cl)c(Cl)c1 [(S)-32],"CLhep predicted at […], 1 µM",[1],30 mL/min/kg
same,"Papp A→B at 2 h, 2 µM",[2],3.9 ×10⁻⁶ cm/s
CCN(C(=O)CO)[C@H]1CN(/C(=N\C#N)Nc2ccc(Cl)c(OC(F)F)c2)N=C1c1ccc(Cl)c(Cl)c1 [(S)-33],"CLhep predicted at […], 1 µM",[1],23.3 mL/min/kg
same,"Papp A→B at 2 h, 2 µM",[2],1 ×10⁻⁶ cm/s
CCN(C(=O)CO)[C@H]1CN(/C(=N\C#N)Nc2cc(F)cc(OC(F)F)c2)N=C1c1ccc(Cl)c(Cl)c1 [(S)-34],"CLhep predicted at […], 1 µM",[1],5 mL/min/kg
same,"Papp A→B at 2 h, 2 µM",[2],2.3 ×10⁻⁶ cm/s
"CCN(C(=O)CO)C1CN(/C(=N\C#N)Nc2cccc(OC(F)F)c2)N=C1c1ccc(Cl)c(Cl)c1 (centres unmarked) [Compound 4, N-[1-{N′-Cyano-N-[3-(difluoromethoxy)phenyl]carbamimidoyl}-3-(3,4-dichlorophenyl)-4,5-dihydro-1H-pyrazol-4-yl]-N-ethyl-2-hydroxyacetamide]",Stable to racemization for,[3],at least 48 h
same,BEI (SMYD2),SMYD2 [4],13.5
CCN(C(=O)CO)C1CN(/C(=N\C#N)Nc2ccc(F)c(Cl)c2)N=C1c1ccc(Cl)cc1 (centres unmarked) [Compound 5],BEI (SMYD2),SMYD2 [4],12.1
CCN(C(=O)CO)C1CN(/C(=N\C#N)Nc2cccc(OC(F)F)c2)N=C1c1ccc(Cl)cc1 (centres unmarked) [Compound 6],Stable to racemization for,[3],at least 48 h
same,BEI (SMYD2),SMYD2 [4],12.5
same,-TΔS,SMYD2 [5],-2.098 kcal/mol
same,ΔG,SMYD2 [5],-8.546 kcal/mol
same,ΔH,SMYD2 [5],-6.444 kcal/mol
CCN(C(=O)CO)C1CN(/C(=N\C#N)Nc2ccc(Cl)c(Cl)c2)N=C1c1ccc(Cl)cc1 (centres unmarked) [Compound 12],BEI (SMYD2),SMYD2 [4],11.1
CCN(C(=O)CO)C1CN(/C(=N\C#N)Nc2ccc3c(c2)OC(F)(F)O3)N=C1c1ccc(Cl)cc1 (centres unmarked) [Compound 13],BEI (SMYD2),SMYD2 [4],11.2
CCN(C(=O)CO)C1CN(/C(=N\C#N)Nc2ccc(OC(F)F)cc2)N=C1c1ccc(Cl)cc1 (centres unmarked) [Compound 14],BEI (SMYD2),SMYD2 [4],9.8
CCN(C(=O)CO)C1CN(/C(=N\C#N)NCCCC(F)(F)F)N=C1c1ccc(Cl)cc1 (centres unmarked) [Compound 16],BEI (SMYD2),SMYD2 [4],11.3
CCN(C(=O)CO)C1CN(/C(=N\C#N)NCCC2CC2)N=C1c1ccc(Cl)cc1 (centres unmarked) [Compound 18],BEI (SMYD2),SMYD2 [4],12.2
N#C/N=C(/Nc1cccc(OC(F)F)c1)N1CC(NC(=O)CO)C(c2ccc(Cl)cc2)=N1 (centres unmarked) [Compound 19],BEI (SMYD2),SMYD2 [4],10.7
CCCN(C(=O)CO)C1CN(/C(=N\C#N)Nc2cccc(OC(F)F)c2)N=C1c1ccc(Cl)cc1 (centres unmarked) [Compound 20],BEI (SMYD2),SMYD2 [4],11.2
CCN(C(=O)CN)C1CN(/C(=N\C#N)Nc2ccc(Cl)c(Cl)c2)N=C1c1ccc(Cl)cc1 (centres unmarked) [Compound 22],BEI (SMYD2),SMYD2 [4],11.3
N#C/N=C(/Nc1cccc(OC(F)F)c1)N1CC(N2CNCC2=O)C(c2ccc(Cl)cc2)=N1 (centres unmarked) [Compound 24],BEI (SMYD2),SMYD2 [4],11
"CCN(C(=O)CO)C1CN(/C(=N\C#N)Nc2cccc(OC(F)F)c2)N=C1c1ccccc1 (centres unmarked) [Compound 25, N-(1-{N′-Cyano-N-[3-(difluoromethoxy)phenyl]carbamimidoyl}-3-phenyl-4,5-dihydro-1H-pyrazol-4-yl)-N-ethyl-2-hydroxyacetamide]",Caspase 3/7 activation in combination with doxorubicin,[6],not
same,SMYD2 IC50,SMYD2 [4]; SPA,inactive
"CCN(C(=O)CO)C1CN(/C(=N\C#N)Nc2cccc(OC(F)F)c2)N=C1c1ccc(Br)cc1 (centres unmarked) [Compound 26, N-[3-(4-Bromophenyl)-1-{N′-cyano-N-[3-(difluoromethoxy)phenyl]carbamimidoyl}-4,5-dihydro-1H-pyrazol-4-yl]-N-ethyl-2-hydroxyacetamide]",BEI (SMYD2),SMYD2 [4],11.1
"CCN(C(=O)CO)C1CN(/C(=N\C#N)Nc2cccc(OC(F)F)c2)N=C1c1cc(C)c(Cl)c(C)c1 (centres unmarked) [Compound 27, N-[3-(4-Chloro-3,5-dimethylphenyl)-1-{N′-cyano-N-[3-(difluoromethoxy)phenyl]-carbamimidoyl}-4,5-dihydro-1H-pyrazol-4-yl]-N-ethyl-2-hydroxyacetamide]",BEI (SMYD2),SMYD2 [4],12
"CCN(C(=O)CO)C1CN(/C(=N\C#N)Nc2cccc(OC(F)F)c2)N=C1c1ccc(Cl)c(C)c1 (centres unmarked) [Compound 28, N-[3-(4-Chloro-3-methylphenyl)-1-{N′-cyano-N-[3-(difluoromethoxy)phenyl]carbamimidoyl}-4,5-dihydro-1H-pyrazol-4-yl]-N-ethyl-2-hydroxyacetamide]",BEI (SMYD2),SMYD2 [4],14
"CCN(C(=O)CO)C1CN(/C(=N\C#N)Nc2cccc(OC(F)F)c2)N=C1c1ccc2c(c1)OCO2 (centres unmarked) [Compound 29, N-[3-(1,3-Benzodioxol-5-yl)-1-{N′-cyano-N-[3-(difluoromethoxy)phenyl]carbamimidoyl}-4,5-dihydro-1H-pyrazol-4-yl]-N-ethyl-2-hydroxyacetamide]",BEI (SMYD2),SMYD2 [4],10.7
